Measured values taken from patent EP4559896A1, “PH-SENSITIVE CATIONIC LIPID AND LIPID NANOPARTICLE” (National University Corporation Hokkaido University, priority 2022, dated 2024).
Blank lines part the entries; values can stand above or below the compound they belong to.

How the values were obtained:
factor VII (F7) = conditions: mouse liver; cited from earlier work
[1] = average particle size and polydispersity index by dynamic light scattering; type: physicochemical; conditions: Fluc mRNA-loaded lipid nanoparticles, TOT/DSPC/chol/PEG-DMG=65/15/20/1.5 (mol%)
Protocol: The average particle size (number average value), ζ-average particle size, and polydispersity index (PdI) of the lipid nanoparticles in PBS(-) (pH 7.4), and the zeta potential in 10 mM HEPES buffer (pH 7.4) were measured using an analyzer "Zetasizer Nano ZS ZEN3600" (manufactured by Malvern) utilizing dynamic light scattering.

[2] = encapsulation rate of lipid nanoparticles (RiboGreen); type: physicochemical; conditions: Fluc mRNA-loaded lipid nanoparticles, TOT/DSPC/chol/PEG-DMG=65/15/20/1.5 (mol%)
Protocol: The encapsulation rate of the lipid nanoparticles was determined by measuring the amount of encapsulated nucleic acid (mRNA) using RiboGreen (manufactured by Life Technologies), which is an RNAintercalator. The amount of mRNA was quantified based on a calibration curve prepared from a dilution series solution of mRNA at a known concentration.
Specifically, 10 mM HEPES buffer (pH 7.4), 10 w/v% Triton X-100, and RiboGreen were mixed at 978.8 µL, 20 µL, and 1.25 µL per 10 wells, respectively, to obtain a Triton(+) buffer. A Triton(-) buffer was obtained in replacing Triton X-100 with 10 mM HEPES buffer (pH 7.4). 100 µL/well of the sample was added to a black 96-well plate for fluorescence measurement, and 100 µL/well of Triton(+) buffer or Triton(-) buffer was added. After the plate was gently shaken on a shaking incubator (SI-300, manufactured by AS ONE) (700 rpm, 30 seconds), the fluorescence intensity of each well was measured using a microplate reader (VARIOSKAN LUX, manufactured by Thermo Fisher Scientific) (wavelength Ex/Em=500 nm/525 nm), and the nucleic acid encapsulation rate (%) was calculated.

BALB/c mice = assay: Fluc activity in tissues of mice administered with Fluc mRNA-loaded lipid nanoparticles; type: in vivo; conditions: for Fluc activity, predominant organ (liver or spleen): Example 34, TOT-5/DSPC/chol/PEG-DMG=65/X/35-X/1.5 (mol%), i.v. 0.01 mg/kg Fluc mRNA, 6 hours
Protocol: Lipid nanoparticles were administered to mice by intravenous injection into the tail vein using a 27G needle. Unless otherwise specified, BALB/c mice (4 to 5 weeks old, female) were used.
First, BALB/c mice (female, 4 weeks old) were intravenously injected with lipid nanoparticles encapsulating Fluc mRNA (Fluc mRNA-loaded lipid nanoparticles) at a dose of 0.01 mg mRNA/kg. Six hours after intravenous injection, the mice were euthanized, each tissue was collected, frozen in liquid nitrogen, and stored at -80°C. The tissues were homogenized in passive lysis buffer (manufactured by Promega) using a bead-type cell disruptor (Micro Smash MS-100R, manufactured by TOMY Seiko). Tissue debris was removed by centrifugation, and the supernatant was collected. Fluc activity in the supernatant was measured using the Luciferase Assay System (E1500, manufactured by Promega) according to the manufacturer's protocol. Luminescence was measured using a luminometer (Luminescencer-PSN, manufactured by ATTO). Protein concentration was determined using a commercially available assay kit (BCA Protein Assay Kit, manufactured by Pierce). Fluc activity was expressed as relative light units (RLU) per mg of protein.
Specifically, first, each lipid nanoparticle was intravenously administered into the tail vein of mice in an amount of 0.2 mg/kg of Fluc mRNA, and 6 hours after administration of the lipid nanoparticles, about 50 mg each of the liver, spleen, lung, heart, brain, and muscle was collected and stored frozen. 500 µL of passive lysis buffer (manufactured by Promega) was added to each tube containing the collected organ. The liver was homogenized at 4000 rpm for 20 seconds twice, the spleen, kidney, lung, and heart were homogenized at 5000 rpm for 20 seconds twice, and the muscle was homogenized at 5000 rpm for 20 seconds four times; then, the homogenate was centrifuged at 13000 rpm at 4°C for 10 minutes, and the supernatant was collected as a sample for measurement. The liver and spleen were diluted 100 times with passive lysis buffer. 50 µL of a measurement sample (tissue supernatant) was mixed with 50 µL of luciferase assay buffer of the Luciferase Assay System (E1500, manufactured by Promega) previously added in a test tube by pipetting, and the amount of luminescence was measured with a luminometer. Protein concentration was determined using a commercially available assay kit (BCA Protein Assay Kit, manufactured by Pierce). Fluc activity was expressed as relative light units (RLU) per mg of protein.

[3] = test system: B cells, T cells, NK cells, dendritic cells, and neutrophils; assay: uptake of DiD-modified lipid nanoparticles by spleen cell types (DiD fluorescence intensity); type: in vivo, mice; conditions: Example 37, TOT-5/DSPC/chol/PEG-DMG=65/X/35-X/1.5 (mol%), 1 hour
Protocol: First, DiD-modified Fluc mRNA-loaded lipid nanoparticles having a composition of TOT-5/DSPC/chol/PEG-DMG=65/X/35-X/1.5 (mol%) (X=3, 5, 10, 15, or 20) were prepared in the same manner as in Example 34, except that the red fluorescent substance DiD was incorporated at 0.5 mol% for DiD modification. The obtained DiD-modified Fluc mRNA-loaded lipid nanoparticles were intravenously administered into the tail vein of BALB/c mice so that the dose of Fluc mRNA was 0.2 mg/kg, the mice were euthanized 1 hour after administration, and the spleen was collected (N=3). As a control, the spleen was also collected from BALB/c mice not administered with lipid nanoparticles.
The spleen cells were stained to distinguish B cells, T cells, NK cells, dendritic cells, and neutrophils. […] After removing the supernatant, the cells were resuspended with 5 mL of cold HBSS(-) buffer, the number of cells was counted, the suspensions were added to a 1.5 mL tube so that 3×10^6 cells were added, and centrifuged at 4°C and 400×g for 5 minutes. […] 6 µL of propidium iodide solution was added to the sample, each cell group was extracted by each surface antigen, and then DiD fluorescence intensity was measured.
DiD-positive cells (cells emitting DiD fluorescence) are cells that have taken up DiD-modified Fluc mRNA-loaded lipid nanoparticles. […]

[4] = Example 11, TOT-5/DOPE/chol/PEG-DMG=60/15/25/1, i.v. tail vein
[5] = Example 14, TOT-5/DSPC/chol/PEG-DMG=65/15/20/1, i.v. tail vein
[6] = Example 33, TOT/DSPC/chol/PEG-DMG=65/15/20/1.5, control CL4F6/DSPC/chol/PEG-DMG=50/10/40/1.5 (mol%), i.v. tail vein

Structure (SMILES): CCCCC/C=C\C/C=C\CCCCCCCCC(CCCCCCCC/C=C\C/C=C\CCCCC)OC(=O)CCCN(C)C [DLin-MC3-DMA]
ED50 in factor VII (F7) knockdown (factor VII (F7)): 0.005 mg siRNA/kg

PdI [1]: 0.161
ζ-Average Particle Size [1]: 102.1 nm
Encapsulation Rate [2]: 88.6%
Structure (SMILES): CCCCCCCC/C=C\CCCCCCCC(=O)OCC(COC(=O)CCCCCCC/C=C\CCCCCCCC)(COC(=O)CCCCCCC/C=C\CCCCCCCC)NC(=O)CCN1CCCCC1 [TOT-5, 2-((oleoyloxy)methyl)-2-(3-(piperidin-1-yl)propanamido)propane-1,3-diyl dioleate]
Fluc activity (RLU/mg protein) in the liver and spleen (BALB/c mice; Example 11, TOT-5/DOPE/chol/PEG-DMG=50 to 65/10 to 35/0 to 40/1 (mol%), all compositions, i.v. tail vein): confirmed
Fluc activity (RLU/mg protein) in the liver (BALB/c mice; [4]): high
Fluc activity (RLU/mg protein) in the spleen (BALB/c mice; [4]): not so high
Fluc activity (RLU/mg protein) in the liver and spleen (BALB/c mice; Example 13, TOT/DOPE/chol/PEG-DMG=60/15/25/1.0 (mol%), i.v. tail vein): very high
Fluc activity (RLU/mg protein) in the liver and spleen (BALB/c mice; Example 14, TOT-5/DSPC/chol/PEG-DMG=55 to 70/5 to 30/10 to 35/1 (mol%), all compositions, i.v. tail vein): confirmed
Fluc activity (RLU/mg protein) in the liver (BALB/c mice; Example 14, TOT-5/DSPC/chol/PEG-DMG=65/5/30/1, i.v. tail vein): very high
Fluc activity (RLU/mg protein) in the liver (BALB/c mice; [5]): not so high
Fluc activity (RLU/mg protein) in the spleen (BALB/c mice; [5]): high
luciferase activity in the spleen compared with control mice (CL4F6-containing lipid nanoparticles) (BALB/c mice; [6]): higher
Fluc activity, predominant organ (liver or spleen) (BALB/c mice; DSPC content 10 mol% or more): predominantly in the spleen
Fluc activity, predominant organ (liver or spleen) (BALB/c mice; DSPC content less than 10 mol%): predominantly in the liver
uptake by spleen cell types (DiD fluorescence intensity) ([3]; X=3, 5, 10, 15, or 20, i.v. 0.2 mg/kg Fluc mRNA): highly taken up by B cells and dendritic cells
improvement of the uptake by B cells by increasing the DSPC content ([3]; X=3 to 20, i.v. 0.2 mg/kg Fluc mRNA): about 10 times

PdI [1]: 0.261
ζ-Average Particle Size [1]: 142.6 nm
Encapsulation Rate [2]: 92.2%
Structure (SMILES): CCCCCCCC/C=C\CCCCCCCC(=O)OCC(COC(=O)CCCCCCC/C=C\CCCCCCCC)(COC(=O)CCCCCCC/C=C\CCCCCCCC)NC(=O)C1CCN(C(C)C)CC1 [TOT-19, 2-(1-isopropylpiperidine-4-carboxamide)-2-((oleoyloxy)methyl)propane-1,3-diyl dioleate]
luciferase activity in the heart compared with control mice (CL4F6-containing lipid nanoparticles) (BALB/c mice; [6]): very high
luciferase activity in the lung compared with control mice (CL4F6-containing lipid nanoparticles) (BALB/c mice; [6]): highest
luciferase activity in the muscle compared with control mice (CL4F6-containing lipid nanoparticles) (BALB/c mice; [6]): very high

Structure (SMILES): CCCCC/C=C\C/C=C\CCCCCCCCOC1(OCCCCCCCC/C=C\C/C=C\CCCCC)CCN(C)CC1 [YSK05]
ED50 in factor VII (F7) knockdown (factor VII (F7)): 0.06 mg siRNA/kg
